# Test results taken from patent publication US20050234041A1, “Substituted 1-benzazepines and derivatives thereof” (priority 2001, published 2005).
# Read-outs that look alike come from different tables or passages of the source.
# Tests used:
# [1] = test system: Helicobacter pylori; experiment: MIC, broth dilution method, Helicobacter pylori; type: cell-based; conditions: for MIC: Helicobacter pylori
# From the text: (§1) Antibacterial activity can be determined by several standard methods well known by those skilled in the art, including disc diffusions methods, broth dilution minimal inhibitory concentration (MIC) methods, etc., including the detailed method outlined below and as defined by the National Committee of Clinical Laboratory Standards in the United States.
# (§2) MIC, Broth Dilution Method
# (§3) Cultures of bacteria are initially brought up from the freezer stocks onto chocolate agar plates by streaking a loop-full, then incubated for 18 hours at 35-37° C. in a 5% CO2 incubator.
# (§4) Five to 10 colonies are picked from the chocolate agar plate for subculture to Brain-Heart Infusion (BHI) broth or Mueller Hinton broth or BHI containing 4% serum and incubated as described.
# (§5) Evaluate the optical density of the organisms in the wells of a 96 well microtiter plate with and without the test compound. The optical density of the organisms in the presence of an active compound will be less than the optical density of the same organism untreated. The activity of the compounds is described as either negative or the lowest concentration inhibiting growth. The results are depicted in Table III, where +/− represents the least activity and ++++ represents the greatest activity. In Table IV, the results are depicted where MIC represents the lowest concentration of antibiotic that inhibits bacterial growth.
# [2] = test system: Campylobacter jejuni; experiment: MIC, broth dilution method, Campylobacter jejuni; type: cell-based; conditions: for MIC: Campylobacter jejuni
# From the text: as §1, §2, §3, §4, §5
# [3] = Table IV, MIC, lowest concentration that inhibits bacterial growth, read-out: Antibacterial Activity (micrograms/ml) Helicobacter pylori
# [4] = Table IV, MIC, lowest concentration that inhibits bacterial growth, read-out: Antibacterial Activity (micrograms/ml) Campylobacter jejuni
# [5] = Table IV, MIC, lowest concentration that inhibits bacterial growth
# [6] = Table V, read-out: MIC (μg/mL) H. pylori
# [7] = Table V, read-out: MIC (μg/mL) C. jejuni
Structure (SMILES),"MIC [1, 6]","MIC [2, 7]",also measured
"CCOC(=O)C1CCc2ccc(OC)cc2N(CC)C1=O (racemic) [Example 4, 3(R,S)-Ethoxycarbonyl-1-ethyl-8-methoxy-2,3,4,5-tetrahydro-1H-1-benzazepine-2-one]",–,–,"MIC [1, 3]: 125 to 250 µg/mL; MIC [2, 4]: 50 µg/mL"
"CCOC(=O)C1(CC)CCc2ccc(OC)cc2N(CC)C1=O (racemic) [Example 6, 1,3-Diethyl-3(R,S)-ethoxycarbonyl-8-methoxy-2,3,4,5-tetrahydro-1H-1-benzazepine-2-one]",–,–,"MIC [1, 3]: 12.5 µg/mL; MIC [2, 4]: 50 µg/mL"
"CCN1C(=O)C(CC)(C(=O)O)CCc2ccc(OC)cc21 (racemic) [Example 7, 3(R,S)-Carboxyl-1,3-diethyl-8-methoxy-2,3,4,5-tetrahydro-1H-1-benzazepine-2-one]",–,–,"MIC [1, 3]: 100 µg/mL; MIC [2, 4]: > 200 µg/mL"
"CCN1C(=O)C(C(=O)OC(C)(C)C)CCc2cc(N3CCN(C(=O)OC(C)(C)C)CC3)c(OC)cc21 (racemic) [Example 14, 3(R,S)-tert-Butoxycarbonyl-7-[(4-tert-butoxycarbonyl-piperazin)-1-yl]-1-ethyl-8-methoxy-2,3,4,5-tetrahydro-1H-1-benzazepine-2-one]",–,–,"Antibacterial Activity (micrograms/ml) Helicobacter pylori [1, 5]: 50 micrograms/ml; Antibacterial Activity (micrograms/ml) Campylobacter jejuni [2, 5]: >200 micrograms/ml"
"COc1ccc2c(c1)N(Cc1cccc(F)c1)C(=O)C(C(=O)OC(C)(C)C)CC2 (racemic) [Example 25, 3(R,S)-tert-Butoxycarbonyl-1-(3-fluorobenzyl)-8-methoxy-2,3,4,5-tetrahydro-1H-1-benzazepine-2-one]",–,–,"MIC [1, 3]: 12.5 µg/mL; MIC [2, 4]: > 200 µg/mL"
"CCN1C(=O)C(C(=O)OC(C)(C)C)CCc2cc(N3CCN(C(=O)OCc4ccccc4)CC3)c(OC)cc21 (racemic) [Example 26, 7-[(4-benzyloxycarbonyl)-piperazin-1-yl]-3(R,S)-tert-butoxycarbonyl-1-ethyl-8-methoxy-2,3,4,5-tetrahydro-1H-1-benzazepine-2-one]",–,–,"Antibacterial Activity (micrograms/ml) Helicobacter pylori [1, 5]: 12.5 micrograms/ml; Antibacterial Activity (micrograms/ml) Campylobacter jejuni [2, 5]: 125 micrograms/ml"
"CCN1C(=O)C(Br)(C(=O)OC)CCc2cc(Br)c(OC)cc21 (racemic) [Example 27, 3,7-dibromo-1-ethyl-3(R,S)-methoxycarbonyl-8-methoxy-2,3,4,5-tetrahydro-1H-benzazepine-2-one]",–,–,"MIC [1, 3]: 12.5 µg/mL; MIC [2, 4]: > 200 µg/mL"
"CCN1C(=O)C(C(=O)OC)CCc2cc(Br)c(OC)cc21 (racemic) [Example 28, 7-bromo-1-ethyl-3(R,S)-methoxycarbonyl-8-methoxy-2,3,4,5-tetrahydro-1H-1-benzazepine-2-one]",–,–,"MIC [1, 3]: 25 µg/mL; MIC [2, 4]: > 200 µg/mL"
"CCN1C(=O)C(C(=O)OC(C)(C)C)CCc2ccc(O[Si](C)(C)C(C)(C)C)cc21 (racemic) [Example 179, 3(R,S)-tert-Butoxycarbonyl-8-tert-Butyldimethylsilyloxy-1-ethyl-2,3,4,5-tetrahydro-1H-1-benzazepine-2-one]",16 µg/mL,> 200 µg/mL,–
"CCOc1ccc2c(c1)N(CC)C(=O)C(C(=O)OC(C)(C)C)CC2 (racemic) [Example 180, 8-Ethoxy-3(R,S)-tert-butoxycarbonyl-1-ethyl-2,3,4,5-tetrahydro-1H-1-benzazepine-2-one]",32 µg/mL,> 200 µg/mL,–
"CC(C)(C)OC(=O)C1CCc2ccc(O)cc2N(C(=O)OC(C)(C)C)C1=O (racemic) [Example 183, 1,3(R,S)-Di(tert-butoxycarbonyl)-8-hydroxy-2,3,4,5-tetrahydro-1H-1-benzazepine-2-one]",64 µg/mL,125 µg/mL,–
"COc1ccc2c(c1)N(Cc1cccc(F)c1)C(=O)C(C(=O)O)CC2 (racemic) [Example 184, 3(R,S)-carboxyl-1-(3-fluorobenzyl)-8-methoxy-2,3,4,5-tetrahydro-1H-1-benzazepine-2-one]",125 µg/mL,> 250 µg/mL,–
"COc1ccc2c(c1)N(CC#N)C(=O)C(C(=O)OC(C)(C)C)CC2 (racemic) [Example 196, 3(R,S)-tert-Butoxycarbonyl-1-cyanomethyl-8-methoxy-2,3,4,5-tetrahydro-1H-1-benzazepine-2-one]",4 µg/mL,30 µg/mL,–
"COc1cc2c(cc1[N+](=O)[O-])CCC(C(=O)OC(C)(C)C)C(=O)N2 (racemic) [Example 198, 3(R,S)-tert-Butoxycarbonyl-8-methoxy-7-nitro-2,3,4,5-tetrahydro-1H-1-benzazepine-2-one]",4 µg/mL,60 µg/mL,–
"COc1cc2c(cc1N)CCC(C(=O)OC(C)(C)C)C(=O)N2 (racemic) [Example 199, 7-Amino-3(R,S)-tert-butoxycarbonyl-8-methoxy-2,3,4,5-tetrahydro-1H-1-benzazepine-2-one]",125 µg/mL,> 250 µg/mL,–
"COc1ccc2c(c1)N(CC(=O)OC(C)(C)C)C(=O)C(C(=O)OC(C)(C)C)CC2 (racemic) [Example 200, 1-(tert-Butoxycarbonyl)methyl-3(R,S)-tert-butoxycarbonyl-8-methoxy-2,3,4,5-tetrahydro-1H-1-benzazepine-2-one]",15 µg/mL,> 250 µg/mL,–
"COc1ccc2c(c1)N(CC(N)=O)C(=O)C(C(=O)OC(C)(C)C)CC2 (racemic) [Example 201, 1-(Aminocarbonyl)methyl-3(R,S)-tert-butyloxycarbonyl-8-methoxy-2,3,4,5-tetrahydro-1H-1-benzazepine-2-one]",60 µg/mL,> 250 µg/mL,–
"CCOC(=O)NC(=O)N(C(=O)NC(=O)OCC)c1cc2c(cc1OC)NC(=O)C(C(=O)OC(C)(C)C)CC2 (racemic) [Example 204, 3(R,S)-tert-Butoxycarbonyl-7-di(ethoxycabonylaminocarbonyl)amino-8-methoxy-2,3,4,5-tetrahydro-1H-1-benzazepine-2-one]",–,–,"MIC (μg/mL) H. pylori ([1]; Table V): 60 µg/mL; MIC (μg/mL) C. jejuni ([2]; Table V): >250, μg/mL"
"COc1ccc2c(c1)N(CCN1CCOCC1)C(=O)C(C(=O)OC(C)(C)C)CC2 (racemic) [Example 213, 3(R,S)-tert-Butoxycarboxyl-8-methoxy-1-[2-(4-morpholinyl)]ethyl-2,3,4,5-tetrahydro-1H-1-benzazepine-2-one]",–,–,"MIC (μg/mL) H. pylori ([1]; Table V): 125 µg/mL; MIC (μg/mL) C. jejuni ([2]; Table V): >250, μg/mL"
"CCOC(=O)NC(=S)Nc1cc2c(cc1O)NC(=O)C(C(=O)OC(C)(C)C)CC2 (racemic) [Example 215, 3(R,S)-tert-Butoxycarbonyl-7-[(ethoxycarbonylamino)thiocarbonyl)]amino-8-hydroxyl-2,3,4,5-tetrahydro-H-1-benzazepine-2-one]",–,–,"MIC (μg/mL) H. pylori ([1]; Table V): 30 µg/mL; MIC (μg/mL) C. jejuni ([2]; Table V): >250, μg/mL"
"COc1ccc2c(c1)N(CCOC1CCCCO1)C(=O)C(C(=O)OC(C)(C)C)CC2 (racemic) [Example 221, 3(R,S)-tert-Butoxycarbonyl-8-methoxy-1-[2-(tetrahydro-2H-pyran-2-yl)oxyethyl]-2,3,4,5-tetrahydro-1H-1-benzazepine-2-one]",15 µg/mL,> 250 µg/mL,–
"COc1ccc2c(c1)N(CCO)C(=O)C(C(=O)OC(C)(C)C)CC2 (racemic) [Example 222, 3(R,S)-tert-Butoxycarbonyl-1-(2-hydroxy)ethyl-8-methoxy-2,3,4,5-tetrahydro-1H-1-benzazepine-2-one]",–,–,"MIC (μg/mL) H. pylori ([1]; Table V): 60 µg/mL; MIC (μg/mL) C. jejuni ([2]; Table V): >250, μg/mL"
"COc1ccc2c(c1)N(CCC1OCCO1)C(=O)C(C(=O)OC(C)(C)C)CC2 (racemic) [Example 223, 3(R,S)-tert-Butoxycarbonyl-8-methoxy-1-[2-(1,3-dioxolan-2-yl)ethyl]-2,3,4,5-tetrahydro-1H-1-benzazepine-2-one]",60 µg/mL,> 250 µg/mL,–
"CCN1C(=O)CCCc2ccc(OC)cc21 [Example 8, 1-Ethyl-8-methoxy-2,3,4,5-tetrahydro-1H-1-benzazepine-2-one]",–,–,"MIC [1, 3]: > 200 µg/mL; MIC [2, 4]: 50 µg/mL"
"CCN1C(=O)C(C(=O)O)CCc2cc(N3CCN(c4cc5c(cc4OC)N(CC)C(=O)C(C(=O)O)CC5)CC3)c(OC)cc21 [Example 20, 1,4-Di-[(3(R,S)-carboxyl-1-ethyl-8-methoxy-2-oxo-2,3,4,5-tetrahydro-1H-1-benzazepine)-7-yl]-piperazine]",–,–,"Antibacterial Activity (micrograms/ml) Helicobacter pylori [1, 5]: 100 micrograms/ml; Antibacterial Activity (micrograms/ml) Campylobacter jejuni [2, 5]: >200 micrograms/ml"
"CCN1C(=O)CCCc2cc(N3CCN(C(=O)OC(C)(C)C)CC3)c(OC)cc21 [Example 21, 7-[(4-tert-butoxycarbonylpiperazin)-1-yl]-1-ethyl-8-methoxy-2,3,4,5-tetrahydro-1H-1-benzazepine-2-one]",–,–,"Antibacterial Activity (micrograms/ml) Helicobacter pylori [1, 5]: 12.5-25 micrograms/ml; Antibacterial Activity (micrograms/ml) Campylobacter jejuni [2, 5]: >200 micrograms/ml"
"O=C1CCCc2ccc([N+](=O)[O-])cc2N1 [Example 181, 8-Nitro-2,3,4,5-tetrahydro-1H-1-benzazepine-2-one]",250 µg/mL,125 µg/mL,–
"CCN1C(=O)CCCc2ccc([N+](=O)[O-])cc21 [Example 182, 8-Nitro-1-ethyl-2,3,4,5-tetrahydro-1H-1-benzazepine-2-one]",16 µg/mL,8 µg/mL,–
"COc1ccc2c(c1)CCCC(=O)N2 [Example 185, 7-Methoxy-2,3,4,5-tetrahydro-1H-1-benzazepine-2-one]",125 µg/mL,32 µg/mL,–
"COc1cccc2c1CCCC(=O)N2 [Example 186, 6-Methoxy-2,3,4,5-tetrahydro-1 H-1-benzazepine-2-one]",64 µg/mL,> 250 µg/mL,–
